Data set [1] deals with Mycobacterium tuberculosis. Kind of data set: Antibacterial activity against Mycobacterium tuberculosis H37Rv assessed as bacterial growth inhibition measured after 7 days by resazurin based assay. The format is functional. The settings on record: 168 h, time 7 day. For orientation: Resazurin is reduced to fluorescent resorufin, in cell work by metabolically active cells.

Data set [2] in a line: Solubility of compound at pH 1.2 at 1 mg incubated for 4 hrs by LC analysis. The format is physicochemical.
Data set [3] can be described thus: Cytotoxicity against human HepG2 cells incubated for 72 hrs by NRU assay. The data set is classed as toxicity, cell-based.
Data set [4] is described as follows: Solubility of compound at pH 7.4 at 1 mg incubated for 4 hrs by LC analysis. The data set is classed as physicochemical.
Data set [5] in a line: Chemical stability of compound at pH 1.2 assessed as compound remaining at 10 uM incubated for 24 hrs by HPLC-MS/MS analysis. The format is physicochemical. The settings on record: buffer, read-out: Stability.
Data set [6] is described as follows: Metabolic stability in rat liver microsomes assessed as half life at 1 mg/ml measured for 30 mins in presence of […] by HPLC-MS/MS analysis. The data set is classed as ADME, Microsome.
Data set [7] can be described thus: Permeability of compound at 10 uM measured after 5 hrs by PAMPA assay. The format is ADME. As to conditions: read-out: permeability. (PAMPA measures passive passage across an artificial lipid membrane.)
A short description of data set [8]: Cytotoxicity against human HepG2 cells incubated for 72 hrs by MTT assay. The format is toxicity, cell-based. (In general: Formazan colour is commonly taken as a measure of viable cells.)
Data set [9] in a line: Chemical stability of compound at pH 9.1 assessed as compound remaining at 10 uM incubated for 24 hrs by HPLC-MS/MS analysis. As to conditions: buffer, read-out: Stability. The data set is classed as physicochemical.
Data set [10] in a line: Chemical stability of compound at pH 7.4 assessed as compound remaining at 10 uM incubated for 24 hrs by HPLC-MS/MS analysis. The data set is classed as physicochemical. As to conditions: buffer, read-out: Stability.
Data set [11] is described as follows: Cytotoxicity against African green monkey Vero cells incubated for 72 hrs by NRU assay. The data set is classed as toxicity, cell-based. As to conditions: chlorocebus sabaeus.
The nature of data set [12]: Cytotoxicity against African green monkey Vero cells incubated for 72 hrs by MTT assay. The format is toxicity, cell-based. The settings on record: chlorocebus sabaeus.
Data set [13] concerns Mycobacterium tuberculosis. Description: Antibacterial activity against H37Rv infected in mouse RAW264.7 cells assessed as reduction in bacterial load by measuring colony forming units per well at 2.5 uM measured after 5 days by plate counting method (reference value: 4.19 +/- 0.41 log10CFU). The data set is classed as functional. The settings on record: time 5 day.
Data set [14] has as its system Mycobacterium tuberculosis. Description: Antibacterial activity against H37Rv infected in mouse RAW264.7 cells assessed as reduction in bacterial load by measuring colony forming units per well at 2.5 uM measured for 5 days by plate counting method (Rvb ~ 1.25 log10CFU). The format is functional. The settings on record: time 5 day.

As a reminder, the MIC is the lowest concentration found to suppress growth. Usually solubility stands for the dissolved amount per volume that the medium holds. As usually defined, the CC50 is the concentration giving 50% cytotoxicity. One may read the half-life as the time needed for the level to fall by half in the phase considered.

Values after ≈ are worked out from the molar mass of the structure shown. Bounds are passed on as bounds.

Regarding `CCc1cc(OCC(=O)Nc2ccc(N3CCC(c4ccccc4)CC3)cc2)c2cc(OC)ccc2n1`, the minimal inhibitory concentration (MIC) in data set [1] is 0.08 µM (≈ 0.0396 µg/mL).
For the molecule `COc1ccc2nc(C)cc(OCC(=O)Nc3ccc(N4CCC(c5ccccc5)CC4)cc3)c2c1`, the solubility at 4 h in data set [2] was 410 µM (≈ 197 µg/mL); in data set [4] it was 2220 µM (≈ 1070 µg/mL). The CC50 at 72 h in [3], in [8], in [11] and in data set [12] was more than 10 µM in each case. The MIC in [1] was determined as 0.02 µM (≈ 0.00963 µg/mL). The remaining at 24 h, 10 µM worked out at 52.4% in [5], 22.6% in data set [9] and 96.3% in [10]. Moreover, the half-life in [6] amounted to 7.1 min. Moreover, the Papp at 5 h, 10 µM in data set [7] turned out to be 0.001 ×10⁻⁶ cm/s.
As for `CCc1cc(OCC(=O)Nc2ccc(N3CCC(c4ccc(OC(F)(F)F)cc4)CC3)cc2)c2cc(Cl)ccc2n1`, in data set [1], the MIC was 0.07 µM (≈ 0.0409 µg/mL).
`O=C(COc1cc(C(F)(F)F)nc2ccc(Br)cc12)Nc1ccc(N2CCC(c3ccccc3)CC2)cc1`: the MIC in data set [1] was found to be 34.2 µM (≈ 20 µg/mL).
The same measure, in the same setting: the figure for `COc1ccc2nc(C(F)(F)F)cc(OCC(=O)Nc3ccc(N4CCC(c5ccccc5)CC4)cc3)c2c1` is 0.1 µM (≈ 0.0536 µg/mL); for `NNC(=O)c1ccncc1` [ISONIAZID] it is 2.3 µM (≈ 0.315 µg/mL).
Turning to `Cc1cc(OCC(=O)Nc2ccc(N3CCC(c4ccccc4)CC3)cc2)c2cc(Cl)ccc2n1`, the figures for the solubility at 4 h in data set [2] and in data set [4] were more than 2060 µM and 4030 µM (≈ 1960 µg/mL), respectively. Besides, the CC50 at 72 h in [3], in data set [8], in [11] and in data set [12] was more than 10 µM each time. For the same molecule, the MIC in [1] amounted to 0.02 µM (≈ 0.00972 µg/mL). Also, the remaining at 24 h, 10 µM was found to be 90.6% in data set [5], 99% in data set [9] and 100% in data set [10]. Besides, in data set [6], the half-life was found to be 177 min. Moreover, the results for the Activity in [13] and in data set [14] were 2.46 log10CFU and 0.48 log10CFU, respectively. In [7], the Papp at 5 h, 10 µM came to 0.49 ×10⁻⁶ cm/s.
Turning to `COc1ccc2nc(C)cc(OCC(=O)Nc3ccc(N4CCC(c5ccc(OC(F)(F)F)cc5)CC4)cc3)c2c1`, the solubility at 4 h in data set [2] is 20 µM (≈ 11.3 µg/mL); in data set [4], 2190 µM (≈ 1240 µg/mL). The CC50 at 72 h in data set [3], in data set [8], in data set [11] and in data set [12] was more than 10 µM throughout. In [1], the MIC came to 0.02 µM (≈ 0.0113 µg/mL). Also, the remaining at 24 h, 10 µM amounted to 100% in data set [5], 96.8% in [9] and 85.3% in [10]. For the same molecule, in data set [6], the half-life was 21 min. For the same molecule, the Papp at 5 h, 10 µM in data set [7] came to 0.16 ×10⁻⁶ cm/s.
In the case of `COc1ccc2nc(C)cc(OCC(=O)Nc3ccc(N4CCCCC4)cc3)c2c1`, the MIC in [1] came out at 0.09 µM (≈ 0.0365 µg/mL).
Same read-out and setting: the figure for `CCc1nc2ccc(Cl)cn2c1C(=O)NCc1ccc(N2CCC(c3ccc(OC(F)(F)F)cc3)CC2)cc1` [TELACEBEC] is 0.009 µM (≈ 0.00501 µg/mL).
Same read-out and setting: the figure for `CCc1cc(OCC(=O)Nc2ccc(N3CCC(c4ccc(OC(F)(F)F)cc4)CC3)cc2)c2cc(Br)ccc2n1` is 7.9 µM (≈ 4.97 µg/mL); for `Cc1cc(OCC(=O)Nc2ccc(N3CCC(c4ccc(OC(F)(F)F)cc4)CC3)cc2)c2cc(Cl)ccc2n1` it is 0.14 µM (≈ 0.0798 µg/mL).
In the case of `Cc1cc(OCC(=O)Nc2ccc(N3CCC(c4ccc(OC(F)(F)F)cc4)CC3)cc2)c2cc(Br)ccc2n1`, in [1], the minimal inhibitory concentration (MIC) turned out to be 0.06 µM (≈ 0.0369 µg/mL).
Consider `Cc1cc(OCC(=O)Nc2ccc(N3CCC(c4ccccc4)CC3)cc2)c2cc(Br)ccc2n1`, for which the solubility at 4 h in data set [2] is more than 1880 µM; in [4], 2640 µM (≈ 1400 µg/mL). Also, the CC50 at 72 h in data set [3], in [8], in [11] and in data set [12] was more than 10 µM throughout. Further, the MIC in [1] came to 0.02 µM (≈ 0.0106 µg/mL). In addition, the remaining at 24 h, 10 µM was 100% in data set [5], 100% in [9] and 93.9% in data set [10]. Also, the half-life in data set [6] was found to be 76.4 min. Further, the Papp at 5 h, 10 µM in [7] came out at 0.35 ×10⁻⁶ cm/s.
Consider `CCc1cc(OCC(=O)Nc2ccc(N3CCC(c4ccc(OC(F)(F)F)cc4)CC3)cc2)c2cc(OC)ccc2n1`, for which, in [1], the MIC was found to be 2.1 µM (≈ 1.22 µg/mL).
The same measure, in the same setting: the result for `CCc1cc(OCC(=O)Nc2ccc(N3CCC(c4ccccc4)CC3)cc2)c2cc(Cl)ccc2n1` reads 0.04 µM (≈ 0.02 µg/mL); that for `CCc1cc(OCC(=O)Nc2ccc(N3CCC(c4ccccc4)CC3)cc2)c2cc(Br)ccc2n1`, 0.07 µM (≈ 0.0381 µg/mL).
`O=C(COc1cc(C(F)(F)F)nc2ccc(Cl)cc12)Nc1ccc(N2CCC(c3ccccc3)CC2)cc1`: the MIC in data set [1] amounted to 74 µM (≈ 40 µg/mL).

For the origin of these results see ChEMBL document CHEMBL5335868, “Exploring Scaffold Hopping for Novel 2-(Quinolin-4-yloxy)acetamides with Enhanced Antimycobacterial Activity” (ACS Med Chem Lett, 2024).
